# According to US11712434B2, “Compound having anti-cancer effect, and preparation method therefor and use thereof” (3D MEDICINES (BEIJING) CO., LTD., priority 2016, dated 2023):
# Key:
# Test in all cases: Cell proliferation assay (Alamar Blue)
# Assay type in all cases: cell-based
# CCRF-CEM = CCRF-CEM tumor cell line, 6 days culture
# Summary of the method: (§1)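 Six-day continuous exposure of log-phase cells to a 9-point compound series (3.16-fold steps from 100 or 30 μM). Residual viability was read by AlamarBlue fluorescence at 560/590 nm. IC50 came from four-parameter curve fitting.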
# DLD1 = DLD1 tumor cell line, 6 days culture
# Summary of the method: as §1
# DU145 = DU145 tumor cell line, 6 days culture
# Summary of the method: as §1
# HCCLM3 = HCCLM3 tumor cell line, 6 days culture
# Summary of the method: as §1
# HEPG2 = HEPG2 liver cancer cell line, 6 days culture
# Summary of the method: as §1
# HLE = HLE liver cancer cell line, 6 days culture
# Summary of the method: as §1
# HT55 = HT55 tumor cell line, 6 days culture
# Summary of the method: as §1
# HUH6 = HUH6 liver cancer cell line, 6 days culture
# Summary of the method: as §1
# HUH7 = HUH7 liver cancer cell line, 6 days culture
# Summary of the method: as §1
# JHH5 = JHH5 liver cancer cell line, 6 days culture
# Summary of the method: as §1
# K562 = K562 tumor cell line, 6 days culture
# Summary of the method: as §1
# LNCAP-clone-FGC = LNCAP-clone-FGC tumor cell line, 6 days culture
# Summary of the method: as §1
# Li-7 = Li-7 liver cancer cell line, 6 days culture
# Summary of the method: as §1
# MDA-MB-231 = MDA-MB-231 tumor cell line, 6 days culture
# Summary of the method: as §1
# MDA-MB-435S = MDA-MB-435S tumor cell line, 6 days culture
# Summary of the method: as §1
# MFM-223 = MFM-223 tumor cell line, 6 days culture
# Summary of the method: as §1
# MG63 = MG63 tumor cell line, 6 days culture
# Summary of the method: as §1
# NCI-H2170 = NCI-H2170 tumor cell line, 6 days culture
# Summary of the method: as §1
# NCI-H526 = NCI-H526 tumor cell line, 6 days culture
# Summary of the method: as §1
# NCI-H716 = NCI-H716 tumor cell line, 6 days culture
# Summary of the method: as §1
# SNU354 = SNU354 liver cancer cell line, 6 days culture
# Summary of the method: as §1
# SNU387 = SNU387 liver cancer cell line, 6 days culture
# Summary of the method: as §1
# SNU449 = SNU449 liver cancer cell line, 6 days culture
# Summary of the method: as §1
# SNU475 = SNU475 liver cancer cell line, 6 days culture
# Summary of the method: as §1
# SW620 = SW620 tumor cell line, 6 days culture
# Summary of the method: as §1
# TE-15 = TE-15 tumor cell line, 6 days culture
# Summary of the method: as §1
smiles,measurement,setting,value
Cc1ccc(F)c(NC(=O)Nc2ccc(-c3cccc4[nH]nc(NC(=O)CCCCCCCCCCCNC(=O)C[C@H](N)C(=O)N[C@@H](CCC(=O)N[C@@H](CCC(=O)N[C@@H](CCC(=O)N[C@@H](CCC(=O)N[C@@H](CCC(=O)N[C@@H](CCC(=O)N[C@@H](CCC(=O)N[C@@H](CCC(=O)N[C@@H](CCC(=O)O)C(=O)O)C(=O)O)C(=O)O)C(=O)O)C(=O)O)C(=O)O)C(=O)O)C(=O)O)C(=O)O)c34)cc2)c1 [Compound 9],IC50,CCRF-CEM,> 100 µM
same,IC50,DLD1,> 100 µM
same,IC50,DU145,> 100 µM
same,IC50,HCCLM3,> 100 µM
same,IC50,HEPG2,33.6 µM
same,IC50,HLE,> 100 µM
same,IC50,HT55,> 100 µM
same,IC50,HUH6,> 100 µM
same,IC50,HUH7,88.5 µM
same,IC50,JHH5,> 100 µM
same,IC50,K562,> 100 µM
same,IC50,LNCAP-clone-FGC,> 100 µM
same,IC50,Li-7,> 100 µM
same,IC50,MDA-MB-231,> 100 µM
same,IC50,MDA-MB-435S,> 100 µM
same,IC50,MFM-223,> 100 µM
same,IC50,MG63,> 100 µM
same,IC50,NCI-H2170,> 100 µM
same,IC50,NCI-H526,> 100 µM
same,IC50,NCI-H716,77.2 µM
same,IC50,SNU354,> 100 µM
same,IC50,SNU387,> 100 µM
same,IC50,SNU449,> 100 µM
same,IC50,SNU475,> 100 µM
same,IC50,SW620,> 100 µM
same,IC50,TE-15,> 100 µM
Cc1ccc(F)c(NC(=O)Nc2ccc(-c3cccc4[nH]nc(NC(=O)CCCCCCCCCCCNC(=O)C[C@H](N)C(=O)N[C@@H](CCC(=O)N[C@@H](CCC(=O)N[C@@H](CCC(=O)N[C@@H](CCC(=O)O)C(=O)O)C(=O)O)C(=O)O)C(=O)O)c34)cc2)c1 [Compound 8],IC50,"CCRF-CEM; Homo sapiens, 144 h",> 100 µM
same,IC50,"DLD1; Homo sapiens, DLD-1, 144 h",> 100 µM
same,IC50,"DU145; Homo sapiens, DU-145, 144 h",> 100 µM
same,IC50,"HCCLM3; Homo sapiens, 144 h",> 100 µM
same,IC50,"HEPG2; Homo sapiens, 144 h",11.5 µM
same,IC50,"HLE; Homo sapiens, 144 h",> 100 µM
same,IC50,"HT55; Homo sapiens, 144 h",> 100 µM
same,IC50,"HUH6; Homo sapiens, HuH-6, 144 h",> 100 µM
same,IC50,"HUH7; Homo sapiens, Huh-7, 144 h",65.4 µM
same,IC50,JHH5; 144 h,> 100 µM
same,IC50,"K562; Homo sapiens, 144 h",> 100 µM
same,IC50,"LNCAP-clone-FGC; Homo sapiens, 144 h",> 100 µM
same,IC50,Li-7; 144 h,> 100 µM
same,IC50,"MDA-MB-231; Homo sapiens, 144 h",> 100 µM
same,IC50,"MDA-MB-435S; Homo sapiens, 144 h",> 100 µM
same,IC50,"MFM-223; Homo sapiens, 144 h",> 100 µM
same,IC50,"MG63; Homo sapiens, MG-63, 144 h",> 100 µM
same,IC50,"NCI-H2170; Homo sapiens, 144 h",75.3 µM
same,IC50,"NCI-H526; Homo sapiens, 144 h",> 100 µM
same,IC50,"NCI-H716; Homo sapiens, 144 h",44.9 µM
same,IC50,"SNU354; Homo sapiens, SNU-354, 144 h",> 100 µM
same,IC50,"SNU387; Homo sapiens, SNU-387, 144 h",> 100 µM
same,IC50,"SNU449; Homo sapiens, SNU-449, 144 h",> 100 µM
same,IC50,"SNU475; Homo sapiens, SNU-475, 144 h",> 100 µM
same,IC50,"SW620; Homo sapiens, SW-620, 144 h",65.3 µM
same,IC50,"TE-15; Homo sapiens, 144 h",> 100 µM
Cc1ccc(F)c(NC(=O)Nc2ccc(-c3cccc4[nH]nc(NC(=O)C[C@H](N)C(=O)O)c34)cc2)c1 [Compound 10],IC50,"CCRF-CEM; Homo sapiens, 144 h",5.46 µM
same,IC50,"DLD1; Homo sapiens, DLD-1, 144 h",10.5 µM
same,IC50,"DU145; Homo sapiens, DU-145, 144 h",3.62 µM
same,IC50,"HCCLM3; Homo sapiens, 144 h",7.76 µM
same,IC50,"HEPG2; Homo sapiens, 144 h",0.97 µM
same,IC50,"HLE; Homo sapiens, 144 h",2.16 µM
same,IC50,"HT55; Homo sapiens, 144 h",18.5 µM
same,IC50,"HUH6; Homo sapiens, HuH-6, 144 h",43.8 µM
same,IC50,"HUH7; Homo sapiens, Huh-7, 144 h",2.24 µM
same,IC50,JHH5; 144 h,13.4 µM
same,IC50,"K562; Homo sapiens, 144 h",14.6 µM
same,IC50,"LNCAP-clone-FGC; Homo sapiens, 144 h",14.8 µM
same,IC50,Li-7; 144 h,5.28 µM
same,IC50,"MDA-MB-231; Homo sapiens, 144 h",4.63 µM
same,IC50,"MDA-MB-435S; Homo sapiens, 144 h",9.46 µM
same,IC50,"MFM-223; Homo sapiens, 144 h",2.64 µM
same,IC50,"MG63; Homo sapiens, MG-63, 144 h",1.95 µM
same,IC50,"NCI-H2170; Homo sapiens, 144 h",4.28 µM
same,IC50,"NCI-H526; Homo sapiens, 144 h",6.93 µM
same,IC50,"NCI-H716; Homo sapiens, 144 h",5.09 µM
same,IC50,"SNU354; Homo sapiens, SNU-354, 144 h",3.33 µM
same,IC50,"SNU387; Homo sapiens, SNU-387, 144 h",20.1 µM
same,IC50,"SNU449; Homo sapiens, SNU-449, 144 h",13.9 µM
same,IC50,"SNU475; Homo sapiens, SNU-475, 144 h",4.39 µM
same,IC50,"SW620; Homo sapiens, SW-620, 144 h",3.46 µM
same,IC50,"TE-15; Homo sapiens, 144 h",2.58 µM
Cc1ccc(F)c(NC(=O)Nc2ccc(-c3cccc4[nH]nc(NC(=O)CCCCCNC(=O)C[C@H](N)C(=O)N[C@@H](CCC(=O)O)C(=O)O)c34)cc2)c1 [Compound 4],IC50,CCRF-CEM,> 100 µM
same,IC50,DLD1,> 100 µM
same,IC50,DU145,> 100 µM
same,IC50,HCCLM3,> 100 µM
same,IC50,HEPG2,54.3 µM
same,IC50,HLE,> 100 µM
same,IC50,HT55,> 100 µM
same,IC50,HUH6,> 100 µM
same,IC50,HUH7,> 100 µM
same,IC50,JHH5,> 100 µM
same,IC50,K562,> 100 µM
same,IC50,LNCAP-clone-FGC,> 100 µM
same,IC50,Li-7,> 100 µM
same,IC50,MDA-MB-231,> 100 µM
same,IC50,MDA-MB-435S,> 100 µM
same,IC50,MFM-223,> 100 µM
same,IC50,MG63,> 100 µM
same,IC50,NCI-H2170,> 100 µM
same,IC50,NCI-H526,> 100 µM
same,IC50,NCI-H716,82.7 µM
same,IC50,SNU354,> 100 µM
same,IC50,SNU387,> 100 µM
same,IC50,SNU449,> 100 µM
same,IC50,SNU475,> 100 µM
same,IC50,SW620,> 100 µM
same,IC50,TE-15,> 100 µM
